Experimental findings from US7485651B2, “Compounds with activity on muscarinic receptors” (Acadia Pharmaceuticals, Inc., priority 1998, dated 2009) are described below.

One assay concerns the target T1, m3 receptor (Homo sapiens, UniProt P20309).
T1 construct: expressed in transfected cells; host or cells: NIH 3T3 (ATCC CRL 1658)
The assay can be described thus: R-SAT / NIH 3T3 cells transfected with m3 muscarinic receptor. Type of assay: cell-based. The text has this: A particularly convenient functional assay system is the receptor selection and amplification assay disclosed in U.S. Pat. No. 5,707,798 describing a method of screening for bioactive compounds by utilizing the ability of cells transfected with receptor DNA, e.g. coding for the different muscarinic subtypes, to amplify in the presence of a ligand of the receptor. Cell amplification is detected as increased levels of a marker also expressed by the cells.
(§1) Transfection of cells with muscarinic receptor DNAs (general procedure) NIH 3T3 cells (available from the American Type Culture Collection as ATCC CRL 1658) were grown at 37° C. in a humidified atmosphere (5% CO2) incubator in Dulbecco's modified Eagle's medium (DMEM) supplemented with 4.5 g/l glucose, 4 mM glutamine, 50 units/m1 penicillin, 50 units/m1 streptomycin (available from Advanced Biotechnologies, Inc., Gaithersburg, Md.) and 10% calf serum (available from Sigma, St. Louis, […].). The cells were treated with trypsin-EDTA, spun down and plated at 2×10^6 per 15 cm dish in 20 m1 of DMEM containing 10% calf serum.
(§2) The m1-m5 muscarinic receptor subtypes were cloned substantially as described by Bonner et al., Science 237, 1987, p. 527, and Bonner et al., Neuron 1, 1988, p. 403. For the m2 and m4 receptors, the cells were co-transfected with DNA encoding a chimera between the Gq protein and the five carboxy-terminal amino acids of the Gi protein (the Gq-i5 construct is described by Conklin et al., Nature 363, 1993, p.274).
On day one, the cells were transfected using the Superfect transfection reagent (available from Qiagen, Valencia, Calif.) in accordance with the manufacturer's instructions. Receptor DNA, β-gal DNA (pSI-β-galactosidase available from Promega, Madison, Wis.), chimeric Gq-i5 DNA for the m2 and m4 receptor subtype assays, and salmon sperm DNA (available from Sigma, St. Louis, […].) as filler to a total of 20 μg DNA was added per plate. Prior to addition to the plates, 60 μl Superfect was added to the DNA and mixed thoroughly by pipetting up and down several times. The mixture was incubated at room temperature for 10-15 minutes. The media were aspirated, and 12 ml fresh DMEM containing 10% calf serum and 50 units/m1 penicillin/streptomycin was added to the plates. The DNA-Superfect solution was mixed once more with a pipette and added to the plate which was swirled to distribute the DNA mixture evenly over the surface. The cells were incubated overnight at 37° C. and 5% CO2. After incubation, the media were aspirated and the plates were rinsed once with a 15 m1 volume of Hank's Buffered Saline. The plates were swirled to ensure thorough rinsing. 20 m1 fresh DMEM supplemented with 10% calf serum and 50 units/m1 penicillin/streptomycin was added to the plates. The cells were incubated for 24-48 hours until the plates were 100% confluent.
Assay of NIH 3T3 cells transfected with muscarinic receptor subtypes (general procedure) DMEM containing 2% Cyto-SF3 was heated at 37° C. in a water bath under sterile conditions. Sterile working stock solutions of test compounds to be assayed were prepared by diluting the compounds in DMEM to 8× the final concentration for testing. The compound (carbachol) to be included in the assay as a positive control was also diluted in DMEM to 8× the final concentration. 50 μL of the DMEM containing 2% Cyto-SF3 was added to each well of 96-well microtiter plates under sterile conditions. Then, 16 of compound solutions were added to the top wells of the plates, and dilution of the solutions was performed by taking 16 μl of the compound solutions from the top wells and pipetting them into the next row of wells. This procedure was repeated with each subsequent row of wells, except that 50 μl medium alone was added to the baseline control wells (the wells that contain medium and cells, but not test compounds) and plate control wells (wells containing medium, but not test compounds and cells). […]

A further assay deals with T2, m4 receptor (Homo sapiens, UniProt P08173).
T2 construct: expressed in transfected cells; host or cells: NIH 3T3 (ATCC CRL 1658)
T2 sequence (P08173 1-479): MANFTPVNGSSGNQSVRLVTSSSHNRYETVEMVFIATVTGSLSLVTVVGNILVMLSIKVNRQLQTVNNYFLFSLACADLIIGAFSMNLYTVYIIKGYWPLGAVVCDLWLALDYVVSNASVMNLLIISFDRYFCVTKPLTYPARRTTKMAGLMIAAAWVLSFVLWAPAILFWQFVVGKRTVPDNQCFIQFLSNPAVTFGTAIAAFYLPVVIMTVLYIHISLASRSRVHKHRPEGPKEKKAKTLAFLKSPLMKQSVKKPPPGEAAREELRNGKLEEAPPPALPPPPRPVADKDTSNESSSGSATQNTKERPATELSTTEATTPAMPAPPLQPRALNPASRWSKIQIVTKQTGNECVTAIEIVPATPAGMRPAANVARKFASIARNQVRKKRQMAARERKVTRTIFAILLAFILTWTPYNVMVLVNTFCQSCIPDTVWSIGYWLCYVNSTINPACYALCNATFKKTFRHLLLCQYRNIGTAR
The assay can be described thus: NIH 3T3 cells transfected with m4 muscarinic receptor and Gq-i5. Type of assay: cell-based. The protocol: as §1, §2
On day one, the cells were transfected using the Superfect transfection reagent (available from Qiagen, Valencia, Calif.) in accordance with the manufacturer's instructions. […]

T1 sequence (P20309 whole entry): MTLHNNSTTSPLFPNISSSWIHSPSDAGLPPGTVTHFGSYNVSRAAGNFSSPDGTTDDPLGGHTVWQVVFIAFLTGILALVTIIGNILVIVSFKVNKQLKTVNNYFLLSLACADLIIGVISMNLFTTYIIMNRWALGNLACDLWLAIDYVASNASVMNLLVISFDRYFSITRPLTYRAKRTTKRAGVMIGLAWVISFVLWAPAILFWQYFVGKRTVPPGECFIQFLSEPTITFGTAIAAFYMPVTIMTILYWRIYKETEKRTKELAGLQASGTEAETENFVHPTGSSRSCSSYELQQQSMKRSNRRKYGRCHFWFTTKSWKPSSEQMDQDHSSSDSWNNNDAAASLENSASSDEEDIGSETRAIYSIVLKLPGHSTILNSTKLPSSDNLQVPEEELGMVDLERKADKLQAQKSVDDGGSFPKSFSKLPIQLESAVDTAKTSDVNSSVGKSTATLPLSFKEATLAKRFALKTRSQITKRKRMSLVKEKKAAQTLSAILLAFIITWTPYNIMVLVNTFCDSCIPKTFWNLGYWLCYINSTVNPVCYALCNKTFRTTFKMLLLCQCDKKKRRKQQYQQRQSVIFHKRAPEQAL

On to `CCCCC1CCN(CCCC(=O)c2ccccc2C)CC1` [Compound A, 4-n-Butyl-1-[4-(2-methylphenyl)-4-oxo-1-butyl]piperidine], for which the “agonist activity at the m3 receptor” value at m3 receptor was “only activated the m1 receptor subtype”. The Emax at 1.5 µM on m3 receptor (NIH3T3, m3, compound at 1.5 μM, maximum = response to 10 μM carbachol, read-out: Cellular response as a percentage of the maximum response of the cells) was determined as 7%. For the same molecule, the “antagonism of carbachol-induced responses” value at m3 receptor (m3) and on m4 receptor was “not an antagonist” in each case.
